Values quoted from earlier work as cited in US20020054924A1, “Novel compositions derived from cranberry and grapefruit and therapeutic uses therefor” (priority 2000, published 2002).

System: cholesterol
Conditions: chickens

Substance: tocotrienol [Extract T3]
- hypocholesterolemic effect compared with Lovastatin: twice as effective as Lovastatin™
